Publication PMC3433420 (PLoS ONE, 2012)
pKd: −log10 of the molar value. Where two headings read alike, the source gives them in different places. Residues, ends and D or L forms follow the SMILES beside them.

How the values were obtained:
PIK3R1-N SH2 domain = molecular target: T1, PIK3R1-N SH2 domain (Homo sapiens, UniProt P27986); test: biochemical; type: binding; conditions: Protein PIK3R1-N; FP saturation binding, high-confidence ErbB interactions; mean over replicate hits
T1 construct: thioredoxin; made in house; host or cells: E. coli BL21(DE3)pLysS
T1 sequence (P27986 333-428 limits assumed): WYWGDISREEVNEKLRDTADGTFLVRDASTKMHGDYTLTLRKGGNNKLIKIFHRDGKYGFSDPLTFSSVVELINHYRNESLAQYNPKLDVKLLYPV

[1] = molecular target: T2, PIK3R3-NC tandem SH2 domains (Homo sapiens, UniProt Q92569); test: FP saturation binding assay; conditions: protein PIK3R3-NC; FP, high-confidence ErbB interactions; mean of replicate hits
T2 construct: the tandem protein was included in our analysis with all internal amino acids linking the domains; 6X His; thioredoxin; made in house; host or cells: E. coli BL21(DE3)pLysS
Description: (See Figure 1A) Rhodamine-labeled peptides were dissolved in assay buffer (20 mM HEPES, 100 mM KCl, 0.1% Tween-20, 5 mM DTT, pH 7.8), diluted to a concentration of 20 nM, and plated into black 384-well plates (Corning, Corning, NY) at 5 µL/well using a Perkin Elmer EP3 pipetting workstation (V&P Scientific, Inc., San Diego, CA). SH2, PTB, and thioredoxin control proteins were plated into the first column of 2 mL 96-well plates (Corning) at a concentration of 20 µM and serially diluted 1∶2 into freezing buffer (300 mM NaCl, 50 mM Na2PO4, pH 8, 20% glycerol v/v) eleven times using a Tecan Freedom EVO 100 workstation (Tecan, Männedorf, Switzerland). For the interaction assay, 5 µL of each of the twelve protein concentrations was added to the peptide-containing 384-well plates via the EP3 resulting in a protein dilution range of 0.002–10 µM and a final volume of 10 µL; peptide concentration was fixed at 10 nM. Peptide/protein samples were incubated for 20 minutes at room temperature in the dark and fluorescence polarization (FP) was measured in an Analyst GT multimode reader (Molecular Devices, Sunnyvale, CA) with excitation and emission wavelengths of 530 nm and 555 nm, respectively. Experimental values were output as millipolarization (mP) units and imported into MATLAB (The MathWorks, Inc., Natick, MA) in which equation (1) was used to determine dissociation constants (KDs) for each protein/peptide pairing by least squares nonlinear regression. [drawing 1] (1)
FP was described by the following equation: P=Iparallel-IperpendicularIparallel+Iperpendicular, where “P” denotes polarization, and “I” denotes the fluorescent intensity relative to the plane of incident light. Experimental values were output as millipolarization (mP) units and imported into MATLAB where the following equation was used to determine dissociation constants (KDs) for each protein/peptide pairing by least squares nonlinear regression:
Pobs=Pmax∙ProteinKD+Protein [picture] (1)
Peptides were initially tested for systematic plate effects across protein dilutions and nonspecific binding to thioredoxin by linear regression analysis and any effects were regressed out. The median baseline control polarization value for each plate was then subtracted from each data point to make each binding curve intersect at zero. Plates with excessive variation in baseline control polarizations on both a global and run-specific manner (Dixon’s Q test, p < 0.05) were excluded from further analysis. Outliers in each binding curve were identified and removed using an iterative procedure as follows. The residuals for each fit were used to calculate a global standard deviation of the residuals (GSDR) for each concentration of SH2 domain over all interactions, and individual data points with residuals < or > two GSDR from the global mean residual were flagged as outliers. The outlier with the largest residual from each interaction was removed and nonlinear regression was again performed. This procedure was repeated if additional outliers were identified for an interaction, discarding the interaction if the number of outliers exceeded three. […] In order to further control our false positive rate against hidden confounding variables producing binding artifacts, we sought to determine whether there was a significant relationship between the strength of an interaction and its technical replication rate at our stringent significance and filtering thresholds. We performed logistic regression on the proportion of successful replicates for each interaction query against KD for all interactions (Figure S15A). […] This is related to the observation that the majority of interactions detected by FP are tight (Figure S15B). With this logit model, we assigned a probability to each peptide-protein interaction in our data by using a binomial proportions test to compare the observed versus the expected replication rate at the particular KD of that interaction (Table S4). […]

SH2 and PTB domains = conditions: most recent PM interactions, cited from earlier work
Text: Supplement pone.0044471.s022.xlsx, sheet "Most recent PM interactions" | column: Kd || Supplement pone.0044471.s022.xlsx, sheet "All original PM interactions" | column: Kd

GRB7 SH2 domain = GRB7 SH2 domain (Homo sapiens, UniProt Q14451); parameters: 6X His; thioredoxin; made in house; host or cells: E. coli BL21(DE3)pLysS; conditions: Protein GRB7, most recent PM interactions, cited from earlier work
Chain of GRB7 SH2 domain (Q14451 431-527 limits assumed): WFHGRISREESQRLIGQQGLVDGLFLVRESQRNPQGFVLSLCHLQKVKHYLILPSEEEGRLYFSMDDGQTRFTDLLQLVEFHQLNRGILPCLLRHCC

[2] = Protein BLK, ref Jones et al. 2006 / Kaushansky et al. Chem and Biol 2008
[3] = Protein SRC, ref Jones et al. 2006 / Kaushansky et al. Chem and Biol 2008
[4] = Protein SYK-NC, ref Jones et al. 2006 / Kaushansky et al. Chem and Biol 2008
[5] = Protein YES1, ref Jones et al. 2006 / Kaushansky et al. Chem and Biol 2008
[6] = ref Jones et al. 2006 / Kaushansky et al. Chem and Biol 2008

## CSCC[C@H](NC(=O)[C@@H]1CCCN1C(=O)[C@H](CCSC)NC(=O)[C@H](Cc1ccc(OP(=O)(O)O)cc1)NC(=O)CNC(=O)[C@H](CO)NC(=O)[C@H](CO)NC(=O)[C@@H]1CCCN1)C(=O)N[C@@H](CC(N)=O)C(=O)N[C@@H](CCC(N)=O)C(=O)NCC(=O)N[C@@H](CC(N)=O)C(=O)N[C@@H](CC(=O)O)C(=O)O [ErbB3 1054 13-mer] (HELM PEPTIDE1{P.S.S.G.[O=C([C@H](Cc1ccc(OP(=O)(O)O)cc1)N[*:1])[*:2]].M.P.M.N.Q.G.N.D}$$$$V2.0)
PIK3R1-N SH2 domain
  pKd: 5.74
[1]
  pKd: 6.59

## LPSPTDSNFpYRALMDEEd [ErbB1 998]
SH2 and PTB domains; Protein BLK, ref Jones et al. 2006 / Kaushansky et al. Mol Biosys 2008 / Kaushansky et al. Chem and Biol 2008
  pKd: 6.72
SH2 and PTB domains; Protein FES, ref Jones et al. 2006 / Kaushansky et al. Mol Biosys 2008 / Kaushansky et al. Chem and Biol 2008
  pKd: 5.91
SH2 and PTB domains; Protein GRB10, ref Jones et al. 2006 / Kaushansky et al. Mol Biosys 2008 / Kaushansky et al. Chem and Biol 2008
  pKd: 5.77
SH2 and PTB domains; Protein ITK, ref Jones et al. 2006 / Kaushansky et al. Mol Biosys 2008 / Kaushansky et al. Chem and Biol 2008
  pKd: 6.55
SH2 and PTB domains; Protein PIK3R1-NC, ref Jones et al. 2006 / Kaushansky et al. Mol Biosys 2008 / Kaushansky et al. Chem and Biol 2008
  pKd: 6.62
SH2 and PTB domains; Protein PIK3R3-NC, ref Jones et al. 2006 / Kaushansky et al. Mol Biosys 2008 / Kaushansky et al. Chem and Biol 2008
  pKd: 6.01
SH2 and PTB domains; Protein PLCG2-NC, ref Jones et al. 2006 / Kaushansky et al. Mol Biosys 2008 / Kaushansky et al. Chem and Biol 2008
  pKd: 5.86
SH2 and PTB domains; Protein RASA1-N, ref Jones et al. 2006 / Kaushansky et al. Mol Biosys 2008 / Kaushansky et al. Chem and Biol 2008
  pKd: 6.15
SH2 and PTB domains; Protein RASA1-NC, ref Jones et al. 2006 / Kaushansky et al. Mol Biosys 2008 / Kaushansky et al. Chem and Biol 2008
  pKd: 5.78
SH2 and PTB domains; Protein SH2B3, ref Jones et al. 2006 / Kaushansky et al. Mol Biosys 2008 / Kaushansky et al. Chem and Biol 2008
  pKd: 5.87
SH2 and PTB domains; Protein SHC1-PTB, ref Jones et al. 2006 / Kaushansky et al. Mol Biosys 2008 / Kaushansky et al. Chem and Biol 2008
  pKd: 5.94
SH2 and PTB domains; Protein SHC2-PTB, ref Jones et al. 2006 / Kaushansky et al. Mol Biosys 2008 / Kaushansky et al. Chem and Biol 2008
  pKd: 6.01
SH2 and PTB domains; Protein SRC, ref Jones et al. 2006 / Kaushansky et al. Mol Biosys 2008 / Kaushansky et al. Chem and Biol 2008
  pKd: 5.94
SH2 and PTB domains; Protein SYK-NC, ref Jones et al. 2006 / Kaushansky et al. Mol Biosys 2008 / Kaushansky et al. Chem and Biol 2008
  pKd: 6.04
SH2 and PTB domains; Protein YES1, ref Jones et al. 2006 / Kaushansky et al. Mol Biosys 2008 / Kaushansky et al. Chem and Biol 2008
  pKd: 6.14
SH2 and PTB domains; Protein ZAP70-NC, ref Jones et al. 2006 / Kaushansky et al. Mol Biosys 2008 / Kaushansky et al. Chem and Biol 2008
  pKd: 5.78
GRB7 SH2 domain; ref Jones et al. 2006 / Kaushansky et al. Mol Biosys 2008 / Kaushansky et al. Chem and Biol 2008
  pKd: 6.12

## MGDLVDAEEpYLVPQQGF [ErbB2 1023]
SH2 and PTB domains; [2]
  pKd: 6.22
SH2 and PTB domains; Protein ITK, ref Jones et al. 2006 / Kaushansky et al. Chem and Biol 2008
  pKd: 6.35
SH2 and PTB domains; Protein PIK3R1-NC, ref Jones et al. 2006 / Kaushansky et al. Chem and Biol 2008
  pKd: 5.79
SH2 and PTB domains; Protein PIK3R2-N, ref Jones et al. 2006 / Kaushansky et al. Chem and Biol 2008
  pKd: 5.71
SH2 and PTB domains; Protein PIK3R3-N, ref Jones et al. 2006 / Kaushansky et al. Chem and Biol 2008
  pKd: 5.71
SH2 and PTB domains; Protein PIK3R3-NC, ref Jones et al. 2006 / Kaushansky et al. Chem and Biol 2008
  pKd: 6.28
SH2 and PTB domains; Protein PLCG1-C, ref Jones et al. 2006 / Kaushansky et al. Chem and Biol 2008
  pKd: 5.84
SH2 and PTB domains; Protein RASA1-N, ref Jones et al. 2006 / Kaushansky et al. Chem and Biol 2008
  pKd: 5.70
SH2 and PTB domains; Protein RASA1-NC, ref Jones et al. 2006 / Kaushansky et al. Chem and Biol 2008
  pKd: 5.75
SH2 and PTB domains; [3]
  pKd: 6.12
SH2 and PTB domains; Protein SUPT6H, ref Jones et al. 2006 / Kaushansky et al. Chem and Biol 2008
  pKd: 6.04
SH2 and PTB domains; [4]
  pKd: 6.43
SH2 and PTB domains; [5]
  pKd: 5.93
GRB7 SH2 domain; [6]
  pKd: 5.74

## RLLDIDETEpYHADGGKVd [ErbB2 877]
SH2 and PTB domains; Protein BLK, ref Kaushansky et al. Chem and Biol 2008
  pKd: 6.14
SH2 and PTB domains; Protein PLCG2-N, ref Kaushansky et al. Chem and Biol 2008
  pKd: 6.19
SH2 and PTB domains; Protein PLCG2-NC, ref Kaushansky et al. Chem and Biol 2008
  pKd: 5.96
SH2 and PTB domains; Protein RASA1-NC, ref Kaushansky et al. Chem and Biol 2008
  pKd: 5.85
SH2 and PTB domains; Protein YES1, ref Kaushansky et al. Chem and Biol 2008
  pKd: 5.72
GRB7 SH2 domain; ref Kaushansky et al. Chem and Biol 2008
  pKd: 5.92

## TEEEDEDEEpYEYMNRRR [ErbB3 1197]
SH2 and PTB domains; Protein ABL1, ref Jones et al. 2006 / Kaushansky et al. Chem and Biol 2008
  pKd: 5.84
SH2 and PTB domains; Protein ABL2, ref Jones et al. 2006 / Kaushansky et al. Chem and Biol 2008
  pKd: 5.95
SH2 and PTB domains; [2]
  pKd: 7.15
SH2 and PTB domains; Protein FGR, ref Jones et al. 2006 / Kaushansky et al. Chem and Biol 2008
  pKd: 6.15
SH2 and PTB domains; Protein LYN, ref Jones et al. 2006 / Kaushansky et al. Chem and Biol 2008
  pKd: 5.97
SH2 and PTB domains; [3]
  pKd: 6.06
SH2 and PTB domains; [4]
  pKd: 6.05
SH2 and PTB domains; [5]
  pKd: 6.89
GRB7 SH2 domain; [6]
  pKd: 6.89
